Data published in PMC8774970 (Foods, 2022).
Marks after values point to notes of the source that are not given here.

Tests used:
[1] = DPPH scavenging procedure
Description: (§1) All experiments were realized in 96-well microplates, and the absorbance measurements were carried out on a Multimode Plate Reader, EnSpire, PerkinElmer, Waltham (US) United States of America. […] The results were expressed as 50% inhibition (IC50) and absorbance at 0.5 (A0.5) concentrations that are able to inhibit/block/chelate 50% or reduce the absorbance to 0.5 of the radical, enzyme catalytic sites or the formation of metallic complexes/cations.
Results were provided as IC50 values, and the I% were calculated using the above formula (*).

[2] = ABTS scavenging procedure
Description: as §1
The ABTS^•+ scavenging ability was performed spectrophotometrically according to the modified procedure of Re et al.. First, the ABTS^•+ was prepared as follows: 2 mM of ABTS was dissolved in H2O with 2.45 mM potassium persulfate (K2S2O8), and the mixture was conserved at ambient temperature for 16 h in obscurity. […] Thereafter, the microplate was incubated for 10 min before measuring the absorbance at 734 nm. The equation below (*) was used to calculate the inhibition percentage of ABTS radical, and results were presented as IC50 values. I% = ((Ac − As)/Ac) × 100 (*)(1)

[3] = Cupric reducing antioxidant capacity (CUPRAC) assay; conditions: concentration at 0.50 absorbance
Description: as §1
The method described by Reference was used with no modifications. […] The result was given as A0.5 value.

[4] = β-Carotene/linoleic acid bleaching test
Description: as §1
Proceeding as described by Marco [23], with minor changes: 0.5 mg of β-carotene, 1 mL of chloroform, 25 μL of linoleic acid, and 200 μL of Tween 40 were added, forming an emulsified mixture. Then, it was evaporated under vacuum, and 50 mL of hydrogen peroxide (30%) were added with vigorous shaking. The absorbance at 470 nm should give a value between (0.8–0.9).

O-Phenanthroline assay = conditions: concentration at 0.50 absorbance
Description: as §1
Next, it was incubated for 20 min at 30 °C before measuring the absorbance at 510 nm. The result was given as A0.5 value.

[5] = Galvinoxyl radical (GOR) scavenging assay
Description: as §1
The result was given as IC50 value.

Reducing power test = conditions: concentration at 0.50 absorbance
Description: as §1
Later, 50 μL of TCA (trichloroacetic acid) (10%) and 10 μL of ferric chloride (0.1%) were added before finally measuring the mixture’s absorbance at 700 nm.

[6] = Silver nanoparticle-based method (SNP)
Description: as §1
The reduction of Ag^+ to spherical silver nanoparticles (SNPs) was developed by Özyürek et al.. […] The microplate was incubated for 30 min at 25 °C, and the absorbance was read at 423 nm. […]

[7] = Hydroxyl radical scavenging assay
Description: as §1
It was evaluated according to the modified method of Smirnoff and Cumbes. […] The microplate was incubated for 30 min at 37 °C, and 36 μL H2O was added; immediately, the absorbance was measured at 510 nm. The result was given as IC50 value.

urease = target: T1, urease (Canavalia ensiformis, UniProt P07374); assay type: biochemical, Canavalia ensiformis (Jack bean)
T1 construct: purchased Sigma Aldrich
Description: Ultrapure water was obtained by a Milli-Q system (Millipore, Bedford, MA, USA).
All experiments were realized in 96-well microplates, and the absorbance measurements were carried out on a Multimode Plate Reader, EnSpire, PerkinElmer, Waltham (US) United States of America. […] The EamCE solution was prepared at seven different concentrations, (800, 400, 200, 100, 50, 25, 12.5 µg/mL) and every assay was realized in triplicate. The results were expressed as 50% inhibition (IC50) and absorbance at 0.5 (A0.5) concentrations that are able to inhibit/block/chelate 50% or reduce the absorbance to 0.5 of the radical, enzyme catalytic sites or the formation of metallic complexes/cations.
Urease inhibitory capability was determined by measuring ammonia production using the indophenol method [35]. Briefly, the reaction mixture consisted of 25 μL of enzyme solution ((5 U/mL) (Jack bean urease)), 10 μL of the EamCE solution, and 50 μL of urea substrate solution, then it was incubated at 30 °C for 15 min. Then, 45 μL of phenol reagent (2 g of phenol (C6H5OH) in 25 mL H2O + 25 mg of Na2[Fe(CN)5NO],2H2O in 25 mL H2O) and 70 μL of basic reagent (0.7125 g of NaOH in 25 mL H2O + 1.175 mL of NaOCl in 25 mL H2O) were added later. After 50 min of incubation, the absorbance was measured at 630 nm, and result was given as IC50 value.

[8] = Superoxide alkaline DMSO test
Description: as §1
The superoxide radical was produced as described Kunchandy’s method: 30 µL of NBT (nitroblue tetrazolium) (1 mg/mL) and 40 μL of sample were added to 130 μL alkaline DMSO (1.0 mL DMSO, 5 mMNaOH, 100 µL H2O). The absorbance of the reaction mixture was measured at 560 nm, and results were provided as IC50 values.

T1 sequence (P07374 whole entry, looked up): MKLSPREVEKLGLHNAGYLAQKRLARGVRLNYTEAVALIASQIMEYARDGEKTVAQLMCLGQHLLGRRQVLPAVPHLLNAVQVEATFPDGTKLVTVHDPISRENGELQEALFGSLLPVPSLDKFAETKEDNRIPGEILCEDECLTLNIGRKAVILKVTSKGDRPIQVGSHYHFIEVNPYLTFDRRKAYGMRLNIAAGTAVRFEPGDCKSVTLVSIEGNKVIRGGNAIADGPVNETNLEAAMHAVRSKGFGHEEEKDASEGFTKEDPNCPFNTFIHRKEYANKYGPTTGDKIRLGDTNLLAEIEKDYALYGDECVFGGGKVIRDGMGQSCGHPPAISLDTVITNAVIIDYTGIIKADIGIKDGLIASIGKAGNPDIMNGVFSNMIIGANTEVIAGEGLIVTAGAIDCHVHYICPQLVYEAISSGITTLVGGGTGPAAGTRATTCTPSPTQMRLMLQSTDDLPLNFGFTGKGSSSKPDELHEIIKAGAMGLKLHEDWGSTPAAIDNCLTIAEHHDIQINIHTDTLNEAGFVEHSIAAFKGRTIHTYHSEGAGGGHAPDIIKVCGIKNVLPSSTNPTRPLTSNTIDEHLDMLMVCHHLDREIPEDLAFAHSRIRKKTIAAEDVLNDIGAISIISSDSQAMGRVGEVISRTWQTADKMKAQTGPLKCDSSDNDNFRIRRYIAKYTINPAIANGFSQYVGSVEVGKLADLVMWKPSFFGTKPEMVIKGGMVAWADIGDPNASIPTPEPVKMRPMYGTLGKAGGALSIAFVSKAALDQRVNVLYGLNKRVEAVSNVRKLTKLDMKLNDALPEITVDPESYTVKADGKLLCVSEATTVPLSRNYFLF

Compound | DPPH (IC50) [1] | ABTS (IC50) [2] | CUPRAC (A0.5) [3] | Beta Carotene (IC50) [4] | Phenonthroline (A0.5) (O-Phenanthroline assay) | GOR (IC50) [5] | Reducing Power (A0.5) (Reducing power test) | SNP [6] | Hydroxyl Radical (IC50) [7] | Anti-Urease IC50 (urease) | DMSO Alcalin (IC50) [8]
COc1ccc(O)c(C(C)(C)C)c1 [BHA] | 6.14 ± 0.41 ^c µg/mL | 1.81 ± 0.10 ^c µg/mL | 5.35 ± 0.71 ^c µg/mL | 0.91 ± 0.01 ^c µg/mL | 0.93 ± 0.07 ^c µg/mL | 3.32 ± 0.18 ^c µg/mL | – | – | – | – | –
O=C1O[C@H]([C@@H](O)CO)C(O)=C1O [Ascorbic Acid] | – | – | 8.31 ± 0.15 ^d µg/mL | – | 3.08 ± 0.02 ^d µg/mL | 5.02 ± 0.01 ^d µg/mL | 6.77 ± 1.15 ^c µg/mL | 7.14 ± 0.05 ^b µg/mL | 32.33 ± 1.17 ^b µg/mL | – | –
Cc1cc(C(C)(C)C)c(O)c(C(C)(C)C)c1 [BHT] | 12.99 ± 0.41 ^b µg/mL | 1.29 ± 0.30 ^b µg/mL | 8.97 ± 3.94 ^b µg/mL | 1.05 ± 0.03 ^b µg/mL | 2.24 ± 0.17 ^b µg/mL | 5.38 ± 0.06 ^b µg/mL | – | – | – | – | –
NC(N)=S [Thiourea] | – | – | – | – | – | – | – | – | – | 11.57 ± 0.68 ^b µg/mL | –
Cc1c(C)c2c(c(C)c1O)CCC(C)(C(=O)O)O2 (stereo not shown) [Trolox] | 5.12 ± 0.21 ^e µg/mL | 3.21 ± 0.06 ^d µg/mL | 8.69 ± 0.14 ^e µg/mL | – | 5.21 ± 0.27 ^e µg/mL | 4.31 ± 0.05 ^e µg/mL | 5.25 ± 0.20 ^e µg/mL | 34.17 ± 1.23 ^c µg/mL | – | – | –
Cc1c(C)c2c(c(C)c1O)CC[C@@](C)(CCC[C@H](C)CCC[C@H](C)CCCC(C)C)O2 [α-Tocopherol] | 13.02 ± 5.17 ^d µg/mL | – | – | – | – | – | 34.93 ± 2.38 ^b µg/mL | – | – | – | ˂3.125 µg/mL
Tannic Acid | – | – | – | – | – | – | 5.39 ± 0.91 ^d µg/mL | – | – | – | <3.125 µg/mL
